Data: patent US3989837A, “Pharmaceutical compositions” (Chinoin Gyogyszer-es Vegyeszeti Termekek Gyara RT, priority 1972, dated 1976)
Read-outs that look alike come from different tables or passages of the source.

Experiments:
[1] = Toxicity on mice after oral administration, single dosage (Table 1'); format: in vivo; details: mouse, in vivo, po, male mice, p.o., 168 hours
Protocol: (§1) The tests were carried out on male mice weighing 25 to 30 g., not starved previously. The compounds were administered in a dosage of 0.2 ml. of suspension per 10 g. body weight. The individual dosages indicated in Table 1' were administered to 10 mice each. The given amount of active agent was added in a single dosage, and the animals were dept under observation for 7 days (= 168 hours). The number of deceased animals was recorded daily.
(§2) The LD50 values were calculated according to the Litchfied-Wilcoxon method, by also taking into account the number of animals perished within 168 hours from the administration.

mice = test: as above; format: in vivo; details: for Perished animals/treated animals: male mice
Protocol: as §1, §2

kaoline oedema = test: Rat paw oedema, kaoline (Table 4'); format: in vivo; details: for Effect % (average), inhibition of kaoline oedema / Effect %, inhibition of kaoline oedema: female rats; for Effect % (average), inhibition of kaoline oedema: average of repeated tests
Protocol: (§3) Inflammatory plantar oedema was provided by the subplantar injection of 0.1 ml. of 5% kaoline or 0.5% carrageenine on female rats each weighing 110 to 130 g., starved for 24 hours. The dorsoplantar diameter of the test animals was measured with a double-armed instrument prior to the administration of the phlogistic (basic value) and at regular intervals (at 2, 3.5 and 5 hours for kaoline and at 1.5, 3 and 4.5 hours for carrageenine) after the administration of the phlogistic. […] The treatment was always carried out 1 hour before the administration of the phlogistic. The animals belonging to the control group received suspending agent only. In order to ensure a uniform hydration grade, 1 ml. of tap water was administered through a stomach tube to the animals simultaneously with the administration of the active agent. During the test period the animals were allowed to consume water ad libitum.
(§4) The effect was calculated from the difference of the increase in paw diameter observed in the treated and control groups. The daga are given as percentage efficiacy.
(§5) The significance level was examined by Student's t test. The significance levels are marked by asterisks; the values of the repeated tests are given separately.

carrageenine oedema = test: Rat paw oedema, carrageenine (Table 5'); format: in vivo; details: for Effect %, inhibition of carrageenine oedema: female rats
Protocol: as §3, §4, §5

cotton granuloma = test: Cotton granuloma, comparison with Indomethacine (Table 6); format: in vivo, rat; details: for Effect %, cotton granuloma: male rats, 7 days
Protocol: Two cotton beads, each weighing 23 to 27 mg., were implanted under the dorsal skin of the animals in aether narcosis, under semisterile conditions, along both sides of the vertebral column. The compound under examination was administered twice a day for 7 days in oral dosages of 0.2 ml./100 g. body weight, in a suspension formed with 1% methyl cellulose. On the 8th day the animals were killed by etheral overnarcosis, the granulomes were removed, dried at 50° C for 5 hours, and then weighed. The animals belonging to the control group were treated similarly, but they received suspending agent only. The percentage efficiacy was calculated from the weight differences of the granuloma tissues observed for the treated and control groups. The significance was examined by the t test.

writhing syndrome = test: Writhing syndrome, comparison with Indomethacine (Table 7); format: in vivo, mouse; details: for Effect % average, writhing: male mice
Protocol: The tests were carried out on male mice each weighing 15 to 18 g., starved for 16 hours prior to treatment. 0.1 ml./10 g. body weight of 1% acetic acid solution was injected intraperitoneally to the animals. The sterile inflammation occurred on the action of acetic acid provoked a characteristic syndrome (writhing). The number of writhings was counted during an observation period of 20 minutes, starting 15 minutes after the administration of acetic acid. The substance to be tested was administered orally as a suspension, in a dosage of 0.1 ml./10 g. body weight 2 to 4 hours before the acetic acid injection. The average number of writhings observed for the treated animals was compared to that observed in the control group, and the percentage inhibition was calculated from the difference.

rats = test: Ulcerogeneous action on rats, comparison with Indomethacine (Table 3'); details: for Animals having lesions on the intestines / Survivals / Ulcer number: male rats, 5 days

Compound: COc1ccc2c(c1)c(CC(=O)OCC(Cl)(Cl)Cl)c(C)n2C(=O)c1ccc(Cl)cc1 [Example 5, 1-(p-chlorobenzoyl)-2-methyl-5-methoxy-indol-3-yl-acetic-acid trichloroethyl ester]
- LD50 at 168 h ([1]; equivalent amounts of Indomethacine, read-out: LD50 as equivalent amount of Indomethacine): 1570 mg/kg
- LD50 at 168 h ([1]; read-out: LD50): 2150 mg/kg
- therapeutical width compared with Indomethacine (mice; considering the toxicity values): far more favorable than that of Indomethacine
- Perished animals/treated animals (mice; oral 1367 (1000) mg./kg., 24 h): 0/10
- Perished animals/treated animals (mice; oral 1367 (1000) mg./kg., 48 h): 0/10
- Perished animals/treated animals (mice; oral 1367 (1000) mg./kg., 72 h): 0/10
- Perished animals/treated animals (mice; oral 1367 (1000) mg./kg., 96 h): 0/10
- Perished animals/treated animals (mice; oral 1367 (1000) mg./kg., 120 h): 0/10
- Perished animals/treated animals (mice; oral 1367 (1000) mg./kg., 144 h): 0/10
- Perished animals/treated animals (mice; oral 1367 (1000) mg./kg., 168 h): 0/10
- Perished animals/treated animals (mice; oral 2050 (1500) mg./kg., 24 h): 0/10
- Perished animals/treated animals (mice; oral 2050 (1500) mg./kg., 48 h): 0/10
- Perished animals/treated animals (mice; oral 2050 (1500) mg./kg., 72 h): 0/10
- Perished animals/treated animals (mice; oral 2050 (1500) mg./kg., 96 h): 0/10
- Perished animals/treated animals (mice; oral 2050 (1500) mg./kg., 120 h): 0/10
- Perished animals/treated animals (mice; oral 2050 (1500) mg./kg., 144 h): 0/10
- Perished animals/treated animals (mice; oral 2050 (1500) mg./kg., 168 h): 1/10
- Perished animals/treated animals (mice; oral 2734 (2000) mg./kg., 24 h): 0/10
- Perished animals/treated animals (mice; oral 2734 (2000) mg./kg., 48 h): 0/10
- Perished animals/treated animals (mice; oral 2734 (2000) mg./kg., 72 h): 2/10
- Perished animals/treated animals (mice; oral 2734 (2000) mg./kg., 96 h): 2/10
- Perished animals/treated animals (mice; oral 2734 (2000) mg./kg., 120 h): 4/10
- Perished animals/treated animals (mice; oral 2734 (2000) mg./kg., 144 h): 6/10
- Perished animals/treated animals (mice; oral 2734 (2000) mg./kg., 168 h): 6/10
- Perished animals/treated animals (mice; oral 3417 (2500) mg./kg., 24 h): 0/10
- Perished animals/treated animals (mice; oral 3417 (2500) mg./kg., 48 h): 1/10
- Perished animals/treated animals (mice; oral 3417 (2500) mg./kg., 72 h): 1/10
- Perished animals/treated animals (mice; oral 3417 (2500) mg./kg., 96 h): 3/10
- Perished animals/treated animals (mice; oral 3417 (2500) mg./kg., 120 h): 4/10
- Perished animals/treated animals (mice; oral 3417 (2500) mg./kg., 144 h): 6/10
- Perished animals/treated animals (mice; oral 3417 (2500) mg./kg., 168 h): 7/10
- Perished animals/treated animals (mice; oral 4101 (3000) mg./kg., 24 h): 0/10
- Perished animals/treated animals (mice; oral 4101 (3000) mg./kg., 48 h): 1/10
- Perished animals/treated animals (mice; oral 4101 (3000) mg./kg., 72 h): 3/10
- Perished animals/treated animals (mice; oral 4101 (3000) mg./kg., 96 h): 4/10
- Perished animals/treated animals (mice; oral 4101 (3000) mg./kg., 120 h): 5/10
- Perished animals/treated animals (mice; oral 4101 (3000) mg./kg., 144 h): 7/10
- Perished animals/treated animals (mice; oral 4101 (3000) mg./kg., 168 h): 7/10
- Effect % (average), inhibition of kaoline oedema (kaoline oedema; p.o. 13.67 (10) mg./kg., 2 hours): 10.2%
- Effect % (average), inhibition of kaoline oedema (kaoline oedema; p.o. 13.67 (10) mg./kg., 3.5 hours): 15.8%
- Effect % (average), inhibition of kaoline oedema (kaoline oedema; p.o. 13.67 (10) mg./kg., 5 hours): 18.8%
- Effect % (average), inhibition of kaoline oedema (kaoline oedema; p.o. 34.17 (25) mg./kg., 2 hours): 12.0%
- Effect % (average), inhibition of kaoline oedema (kaoline oedema; p.o. 34.17 (25) mg./kg., 3.5 hours): 22.1%
- Effect % (average), inhibition of kaoline oedema (kaoline oedema; p.o. 34.17 (25) mg./kg., 5 hours): 27.3%
- Effect %, inhibition of kaoline oedema (kaoline oedema; p.o. 68.35 (50) mg./kg., 2 hours): 21.9%
- Effect %, inhibition of kaoline oedema (kaoline oedema; p.o. 68.35 (50) mg./kg., 3.5 hours): 30.2%
- Effect %, inhibition of kaoline oedema (kaoline oedema; p.o. 68.35 (50) mg./kg., 5 hours): 33.3%
- Effect %, inhibition of kaoline oedema (kaoline oedema; p.o. 136.7 (100) mg./kg., 2 hours): 26.9%
- Effect %, inhibition of kaoline oedema (kaoline oedema; p.o. 136.7 (100) mg./kg., 3.5 hours): 41.1%
- Effect %, inhibition of kaoline oedema (kaoline oedema; p.o. 136.7 (100) mg./kg., 5 hours): 37.9%
- dosage inhibiting oedema, times higher than Indomethacine (kaoline oedema; kaoline oedema, molar equivalents compared): about 2.5 times
- antiphlogistic effect, times weaker than Indomethacine (kaoline oedema; summary of the comparison): about 2.5 times
- dosage inhibiting oedema, times higher than Indomethacine (carrageenine oedema; carrageenine oedema, molar equivalents compared): about 2.5 times
- Effect %, inhibition of carrageenine oedema (carrageenine oedema; p.o. 13.67 (10) mg./kg., 1.5 hours): 9.8%
- Effect %, inhibition of carrageenine oedema (carrageenine oedema; p.o. 13.67 (10) mg./kg., 3 hours): 15.8%
- Effect %, inhibition of carrageenine oedema (carrageenine oedema; p.o. 13.67 (10) mg./kg., 4.5 hours): 16.0%
- Effect %, inhibition of carrageenine oedema (carrageenine oedema; p.o. 34.17 (25) mg./kg., 1.5 hours): 10.8%
- Effect %, inhibition of carrageenine oedema (carrageenine oedema; p.o. 34.17 (25) mg./kg., 3 hours): 18.3%
- Effect %, inhibition of carrageenine oedema (carrageenine oedema; p.o. 34.17 (25) mg./kg., 4.5 hours): 21.9%
- Effect %, inhibition of carrageenine oedema (carrageenine oedema; p.o. 68.35 (50) mg./kg., 1.5 hours): 14.8%
- Effect %, inhibition of carrageenine oedema (carrageenine oedema; p.o. 68.35 (50) mg./kg., 3 hours): 19.9%
- Effect %, inhibition of carrageenine oedema (carrageenine oedema; p.o. 68.35 (50) mg./kg., 4.5 hours): 28.5%
- effect on cotton granuloma compared with Indomethacine (cotton granuloma; even when added in a twofold dosage): lower than that of Indomethacine
- Effect %, cotton granuloma (cotton granuloma; oral daily 5.5 (4) mg./kg., p 0.01): 19.5%
- Effect %, cotton granuloma (cotton granuloma; oral daily 11 (8) mg./kg., p 0.001): 24.8%
- Effect % average, writhing (writhing syndrome; p.o. 6.8 (5) mg./kg., 2 hours): 24.8%
- Effect % average, writhing (writhing syndrome; p.o. 6.8 (5) mg./kg., 4 hours): 19.3%
- Effect % average, writhing (writhing syndrome; p.o. 17.1 (12.5) mg./kg., 2 hours): 56.1%
- Effect % average, writhing (writhing syndrome; p.o. 17.1 (12.5) mg./kg., 4 hours): 53.5%
- dosage provoking the same analgesic effect, times higher than Indomethacine (writhing syndrome; writhing, ratio refers to molar equivalents): 2.5 times
- Animals having lesions on the intestines (rats; oral 27.3 (20) mg./kg.): 10.5%
- Survivals (rats; oral 27.3 (20) mg./kg.): 19
- Ulcer number (rats; oral 27.3 (20) mg./kg.): 0
- Animals having lesions on the intestines (rats; oral 54.7 (40) mg./kg.): 80%
- Survivals (rats; oral 54.7 (40) mg./kg.): 15
- Ulcer number (rats; oral 54.7 (40) mg./kg.): 0.27
- frequency of occurrence of intestinal lesions compared with Indomethacine (rats; rats, oral, fivefold dosage): doubled
- lesions on intestines compared with Indomethacine (rats; rats, oral, fivefold dosage): far more severe
- extent of perishment, lower than that caused by Indomethacine 8 mg./kg. (rats; rats, oral, fivefold dosage with respect to Indomethacine (8 mg./kg.)): 50%
- lesions on the mucous membrane of the stomach (rats; rats, oral, Indomethacine 4 and 8 mg./kg., […]): slightly more severe lesions
